This is an account of results in article PMC7144022, “Quinolinecarboxamides Inhibit the Replication of the Bovine Viral Diarrhea Virus by Targeting a Hot Spot for the Inhibition of Pestivirus Replication in the RNA-Dependent RNA Polymerase” (Molecules, 2020).

Data set [1] in a line: Cytotoxicity assay, proliferation of exponentially growing MDBK cells (MTS/PMS). As to conditions: bovine. In kind it is cell-based, bovine. The procedure: Assays were carried out, as described previously.
For data set [2], the system named is BVDV NADL virus. The experiment in a line: CPE-based antiviral assay, BVDV NADL in MDBK cells (MTS/PMS). As to conditions: for EC50: Bovine viral diarrhea virus isolates and strains, MDBK, 72 h; for S.I.: selectivity index, CC50 vs EC50.
The mark [3] stands for this setting: sheet CSFCI#, potency relative to TO505-6180 (EC50 0.07 µM).
The mark [4] stands for this setting: sheet CSFCII#, potency relative to TO502-2403 (EC50 0.2 µM).

In data set [1], `Cc1cccc2sc(NC(=O)c3cc(-c4ccco4)nc4ccccc34)nc12` [CSFC-35, Cc1cccc2sc(nc12)NC(=O)c1cc(nc2ccccc21)c1ccco1] came in with a CC50 at 5 days above 100 µM. In data set [2], this molecule registered an EC50 of 0.3 µM and a S.I. of 333. Also, the fold increase in data set [2] (setting [3]) is on record as 0.23.
For `Cc1noc(C)c1NC(=O)c1cc(-c2ccccc2)nc2ccccc12` [CSFC-36, O=C(Nc1c(C)onc1C)c3cc(nc2ccccc23)c4ccccc4], the CC50 at 5 days in data set [1] was above 100 µM. In data set [2], the EC50 is 47.2 µM and the S.I. stood at 2. For the same molecule, the fold increase in data set [2] (setting [4]) is listed as 0.00424.
With `Cc1noc(C)c1NC(=O)c1cc(-c2ccco2)nc2ccccc12` [CSFC-37, O=C(Nc1c(C)onc1C)c3cc(nc2ccccc23)c4ccco4], the CC50 at 5 days in data set [1] was above 100 µM. In data set [2], the EC50 was found to be 34.2 µM and the S.I. is listed as 3. For the same molecule, the fold increase in data set [2] (setting [4]) was determined as 0.00585.
For the molecule `COc1ccc2nc(NC(=O)c3cc(-c4ccco4)nc4ccccc34)sc2c1` [CSFC-38, COc1ccc2nc(NC(=O)c3cc(nc4ccccc43)c3ccco3)sc2c1], in data set [1], the half-maximal cytotoxic concentration (CC50) at 5 days is above 100 µM. Also, in data set [2], the EC50 is 0.09 µM and the S.I. turned out to be 1111. Besides, the fold increase in data set [2] (setting [3]) turned out to be 0.78.
`Cc1cc2nc(NC(=O)c3cc(-c4ccco4)nc4ccccc34)sc2cc1C` [CSFC-39, Cc1cc2nc(NC(=O)c3cc(nc4ccccc43)c3ccco3)sc2cc1C] yielded a CC50 at 5 days in data set [1] above 100 µM. In data set [2], this molecule showed an EC50 of 0.6 µM and a S.I. of 167. Besides, the fold increase in data set [2] (setting [3]) was 0.12.
In data set [1], `Cc1cc(NC(=O)c2cc(-c3ccccc3)nc3ccccc23)no1` [CSFC-40, Cc1cc(no1)NC(=O)c3cc(nc2ccccc23)c4ccccc4] showed a CC50 at 5 days above 100 µM. In data set [2], a half-maximal effect (EC50) was put at 94 µM and the S.I. stood at 1. The fold increase in data set [2] (setting [4]) is given as 0.00213.
The molecule `Cc1cc(NC(=O)c2cc(-c3ccccc3)nc3ccccc23)on1` [CSFC-41, O=C(Nc1cc(C)no1)c3cc(nc2ccccc23)c4ccccc4] returned a CC50 at 5 days in data set [1] above 100 µM. In data set [2], the EC50 is 34.6 µM and the S.I. was 3. The fold increase in data set [2] (setting [4]) turned out to be 0.00578.
`Cc1cc(NC(=O)c2cc(-c3ccco3)nc3ccccc23)on1` [CSFC-42, O=C(Nc1cc(C)no1)c3cc(nc2ccccc23)c4ccco4]: the CC50 at 5 days in data set [1] was above 100 µM. Besides, in data set [2], the EC50 was found to be 17.5 µM and the S.I. is 6. Moreover, in data set [2] (setting [4]), the fold increase was found to be 0.0114.
In turn, `O=C(Nc1cc(-c2ccc(Br)cc2)on1)c1cc(-c2ccccc2)nc2ccccc12` [CSFC-43, O=C(Nc1cc(on1)c2ccc(Br)cc2)c4cc(nc3ccccc34)c5ccccc5] yielded a CC50 at 5 days in data set [1] above 100 µM. In data set [2], the EC50 came to 4 µM and the S.I. came to 26. For the same molecule, the fold increase in data set [2] (setting [4]) stood at 0.05.
`O=C(Nc1ccn(-c2ccccc2)n1)c1cc(-c2ccco2)nc2ccccc12` [CSFC-44, O=C(Nc1ccn(n1)c2ccccc2)c4cc(nc3ccccc34)c5ccco5]: the CC50 at 5 days in data set [1] came out at 23 µM. For the same molecule, in data set [2], the EC50 stood at 2.3 µM and the S.I. is 10. In data set [2] (setting [4]), the fold increase is 0.09.
For the molecule `Cc1cccc2sc(NC(=O)c3cc(-c4cccs4)nc4ccccc34)nc12` [CSFC-46, Cc1cccc2sc(nc12)NC(=O)c4cc(nc3ccccc34)c5cccs5], the CC50 at 5 days in data set [1] is above 100 µM. In data set [2], a half-maximal response (EC50) required 0.2 µM and the S.I. was 500. Besides, in data set [2] (setting [4]), the fold increase is 1.00.
On to `O=C(Nc1ccn(-c2ccccc2)n1)c1cc(-c2cccs2)nc2ccccc12` [CSFC-47, O=C(Nc1ccn(n1)c2ccccc2)c4cc(nc3ccccc34)c5cccs5], for which the CC50 at 5 days in data set [1] is above 100 µM. In data set [2], the EC50 is 1.7 µM and the S.I. stood at 59. In addition, the fold increase in data set [2] (setting [4]) came out at 0.12.
In data set [1], `Cc1cccc2sc(NC(=O)c3cc(-c4ccc(Cl)s4)nc4ccccc34)nc12` [CSFC-48, Clc1ccc(s1)c3nc2ccccc2c(c3)C(=O)Nc4nc5c(C)cccc5s4] displayed a CC50 at 5 days of 14 ± 0.7 µM. For the same molecule, in data set [2], it took 14 µM to reach a half-maximal effect (EC50) and the S.I. stood at 1. The fold increase in data set [2] (setting [4]) is 0.0143.
Turning to `Cc1ccc(-c2cc(C(=O)Nc3nc4c(C)cccc4s3)c3ccccc3n2)o1` [CSFC-49, Cc1ccc(o1)c3nc2ccccc2c(c3)C(=O)Nc4nc5c(C)cccc5s4], in data set [1], the CC50 at 5 days was above 100 µM. In data set [2], this molecule showed an EC50 of 0.7 µM and a S.I. of 143. In data set [2] (setting [4]), the fold increase stood at 0.29.
On the same counts, the results for `Cc1csc(-c2cc(C(=O)Nc3nc4c(C)cccc4s3)c3ccccc3n2)c1` [CSFC-50, Cc1cc(sc1)c3nc2ccccc2c(c3)C(=O)Nc4nc5c(C)cccc5s4] are above 100 µM, 1.9 µM, 53 and 0.11.
`Cc1ccc(-c2cc(C(=O)Nc3ccn(-c4ccccc4)n3)c3ccccc3n2)o1` [CSFC-51, Cc1ccc(o1)c3nc2ccccc2c(c3)C(=O)Nc4ccn(n4)c5ccccc5]: in data set [1], the CC50 at 5 days was above 100 µM. In data set [2], the EC50 is 15.2 µM and the S.I. stood at 7. The fold increase in data set [2] (setting [4]) is listed as 0.0132.
`Cc1csc(-c2cc(C(=O)Nc3ccn(-c4ccccc4)n3)c3ccccc3n2)c1` [CSFC-52, Cc1cc(sc1)c3nc2ccccc2c(c3)C(=O)Nc4ccn(n4)c5ccccc5] yielded a CC50 at 5 days in data set [1] above 100 µM. Besides, in data set [2], the EC50 was 1.2 µM and the S.I. amounted to 83. Moreover, the fold increase in data set [2] (setting [4]) came out at 0.17.
On the same counts, the results for `O=C(Nc1ccn(-c2ccccc2)n1)c1cc(-c2ccc(Cl)s2)nc2ccccc12` [CSFC-53, Clc1ccc(s1)c3nc2ccccc2c(c3)C(=O)Nc4ccn(n4)c5ccccc5] are above 100 µM, 77.5 µM, 1 and 0.00258.
`O=C(Nc1nc2cc(F)ccc2s1)c1cc(-c2ccco2)nc2ccccc12` [CSFC-54, Fc1cc2nc(sc2cc1)NC(=O)c4cc(nc3ccccc34)c5ccco5] gave a CC50 at 5 days in data set [1] above 100 µM. In data set [2], a half-maximal effect (EC50) was put at 100 µM and the S.I. stood at 1. For the same molecule, in data set [2] (setting [4]), the fold increase came out at 0.002.
For the molecule `O=C(Nc1nc2cc(Cl)ccc2s1)c1cc(-c2ccco2)nc2ccccc12` [CSFC-55, Clc1cc2nc(sc2cc1)NC(=O)c4cc(nc3ccccc34)c5ccco5], the CC50 at 5 days in data set [1] is above 100 µM. In data set [2], this molecule returned an EC50 of 100 µM and a S.I. of 1. Further, the fold increase in data set [2] (setting [4]) amounted to 0.002.
In turn, `CS(=O)(=O)c1ccc2nc(NC(=O)c3cc(-c4ccccc4)nc4ccccc34)sc2c1` [CSFC-56, CS(=O)(=O)c1ccc2nc(sc2c1)NC(=O)c4cc(nc3ccccc34)c5ccccc5] showed a CC50 at 5 days in data set [1] above 100 µM. In data set [2], a half-maximal effect (EC50) was put at 100 µM and the S.I. is 1. Besides, the fold increase in data set [2] (setting [4]) is on record as 0.002.
`CCOc1ccc2nc(NC(=O)c3cc(-c4ccco4)nc4ccccc34)sc2c1` [CSFC-57, CCOc1ccc2nc(sc2c1)NC(=O)c4cc(nc3ccccc34)c5ccco5] had a CC50 at 5 days in data set [1] above 100 µM. In data set [2], this molecule returned an EC50 of 0.5 µM and a S.I. of 200. In addition, the fold increase in data set [2] (setting [4]) worked out at 0.40.
For `CCOc1ccc2nc(NC(=O)c3cc(-c4ccccc4)nc4ccccc34)sc2c1` [CSFC-58, CCOc1ccc2nc(sc2c1)NC(=O)c4cc(nc3ccccc34)c5ccccc5], the CC50 at 5 days in data set [1] is above 100 µM. In addition, in data set [2], the EC50 worked out at 3.3 µM and the S.I. amounted to 30. Moreover, the fold increase in data set [2] (setting [4]) is listed as 0.06.
On the same counts, the results for `O=C(Nc1nc(-c2ccccc2)cs1)c1cc(-c2ccccc2)nc2ccccc12` [CSFC-60, O=C(Nc1nc(cs1)c2ccccc2)c4cc(nc3ccccc34)c5ccccc5] are above 100 µM, 0.7 µM, 143 and 0.29.
In data set [1], `Cc1ccc2nc(NC(=O)c3cc(-c4ccccc4F)nc4ccccc34)sc2c1` [CSFC-61, Fc1ccccc1c3nc2ccccc2c(c3)C(=O)Nc4nc5ccc(C)cc5s4] registered a CC50 at 5 days above 100 µM. In data set [2], this molecule yielded an EC50 of 0.2 µM and a S.I. of 500. For the same molecule, the fold increase in data set [2] (setting [4]) is reported as 1.00.
`Cc1cccc2sc(NC(=O)c3cc(-c4cccc(F)c4)nc4ccccc34)nc12` [CSFC-62, Fc1cccc(c1)c3nc2ccccc2c(c3)C(=O)Nc4nc5c(C)cccc5s4] returned a CC50 at 5 days in data set [1] of 25 ± 5 µM. In data set [2], this molecule yielded an EC50 of 25 µM and a S.I. of 1. Further, the fold increase in data set [2] (setting [4]) was 0.008.
As to `COc1ccc2nc(NC(=O)c3cc(-c4ccco4)nc4ccc(F)cc34)sc2c1` [CSFC-63, Fc1cc2c(cc1)nc(cc2C(=O)Nc3nc4ccc(cc4s3)OC)c5ccco5], the CC50 at 5 days in data set [1] was above 100 µM. Further, in data set [2], the EC50 worked out at 18.8 µM and the S.I. is 5. For the same molecule, the fold increase in data set [2] (setting [4]) is 0.0106.
For `COc1ccc2nc(NC(=O)c3cc(-c4ccco4)nc4ccc(OC)cc34)sc2c1` [CSFC-64, O=C(c2cc(nc1ccc(OC)cc12)c3ccco3)Nc4nc5ccc(cc5s4)OC], in that order: above 100 µM, 16 µM, 6 and 0.0125.
In data set [1], `COc1ccc2nc(NC(=O)c3cc(-c4ccco4)nc4c(C)cc(C)cc34)sc2c1` [CSFC-65, O=C(c2cc(nc1c2cc(cc1C)C)c3ccco3)Nc4nc5ccc(cc5s4)OC] had a CC50 at 5 days above 100 µM. In data set [2], this molecule registered an EC50 of 5.8 µM and a S.I. of 17. The fold increase in data set [2] (setting [4]) amounted to 0.0345.
In the case of `Cc1cccc2sc(NC(=O)c3cc(-c4ccc(F)cc4)nc4ccccc34)nc12` [CSFC-66, Fc1ccc(cc1)c3nc2ccccc2c(c3)C(=O)Nc4nc5c(C)cccc5s4], the CC50 at 5 days in data set [1] was above 100 µM. In data set [2], this molecule had an EC50 of 0.2 µM and a S.I. of 500. Moreover, in data set [2] (setting [4]), the fold increase turned out to be 1.00.

As a reminder, the CC50 is the concentration that lowers cell viability or growth by half. Low readings indicate greater toxicity to the cells, high ones lower toxicity to the cells. For orientation: EC50 means the concentration at which the effect is half-maximal.
